Where two headings read alike, the source gives them in different places.
Legend:
MV4;11 cells = assay: Cell viability assay (CellTiter-Glo) in MV4;11 cells, alone or with gilteritinib; type: cell-based; settings: Homo sapiens, MV4-11, 72 h, MV4;11 cells, three days, CellTiter-Glo, read-out: MV4
MOLM-13 cells = assay: Cell viability assay (CellTiter-Glo) in MOLM-13 cells, alone or with gilteritinib; type: cell-based; settings: Homo sapiens, MOLM-13, 72 h, MOLM-13 cells, three days, CellTiter-Glo
[1] = compound alone (without gilteritinib), 11 IC50
[2] = with gilteritinib 10 nM, 11 IC50 gilteritinib
[3] = compound alone (without gilteritinib), read-out: MOLM-13 IC50
[4] = with gilteritinib 20 nM, read-out: MOLM-13 IC50 gilteritinib
[5] = compound with gilteritinib 10 nM, 11 IC50 gilteritinib
[6] = compound with gilteritinib 20 nM, read-out: MOLM-13 IC50 gilteritinib

IC50 (MV4;11 cells; [1]) [nM] | IC50 (MV4;11 cells; [2]) [nM] | IC50 (MOLM-13 cells; [3]) [nM] | IC50 (MOLM-13 cells; [4]) [nM] | IC50 (MV4;11 cells; [5]) [nM] | IC50 (MOLM-13 cells; [6]) [nM] | SMILES
100 to 1000 | 10 to 100 | > 1000 | 10 to 100 | – | – | O=C1CCC(N2C(=O)c3ccc(NCC4CC(n5cc(-c6cnc7cccc(F)c7n6)cn5)C4)cc3C2=O)C(=O)N1 (stereo not drawn) [GS-394, 2-(2,6-Dioxopiperidin-3-yl)-5-(((3-(4-(8-fluoroquinoxalin-2-yl)-1H-pyrazol-1-yl)cyclobutyl)methyl)amino)isoindoline-1,3-dione]
< 10 | < 10 | < 10 | < 10 | – | – | O=C1CCC(N2C(=O)c3ccc(NCCC[C@H]4C[C@@H](n5cc(-c6cnc7ccc(N8CCOCC8)cc7n6)c(C6CC6)n5)C4)cc3C2=O)C(=O)N1 (stereo partly drawn) [GS-227, 5-((3-(cis-3-(3-Cyclopropyl-4-(7-morpholinoquinoxalin-2-yl)-1H-pyrazol-1-yl)cyclobutyl)propyl)amino)-2-(2,6-dioxopiperidin-3-yl)isoindoline-1,3-dione]
< 10 | < 10 | 10 to 100 | < 10 | – | – | O=C1CCC(N2C(=O)c3ccc(NC[C@H]4C[C@H](n5cc(-c6cccc(N7CCC7)n6)c(C6CC6)n5)C4)cc3C2=O)C(=O)N1 (stereo partly drawn) [GS-257, 5-(((trans-3-(4-(6-(Azetidin-1-yl)pyridin-2-yl)-3-cyclopropyl-1H-pyrazol-1-yl)cyclobutyl)methyl)amino)-2-(2,6-dioxopiperidin-3-yl)isoindoline-1,3-dione]
< 10 | – | 10 to 100 | – | < 10 | < 10 | CC(C)n1ncc2cnc(-c3cn([C@H]4C[C@H](CNc5ccc6c(c5)C(=O)N(C5CCC(=O)NC5=O)C6=O)C4)nc3C3CC3)cc21 (stereo partly drawn) [GS-614, 5-(((trans-3-(3-Cyclopropyl-4-(1-isopropyl-1H-pyrazolo[4,3-c]pyridin-6-yl)-1H-pyrazol-1-yl)cyclobutyl)methyl)amino)-2-(2,6-dioxopiperidin-3-yl)isoindoline-1,3-dione]
< 10 | < 10 | < 10 | < 10 | – | – | O=C1CCC(N2C(=O)c3ccc(NCCC[C@H]4C[C@@H](n5cc(-c6cnc7ccc(C8CCOCC8)cc7n6)c(C(F)(F)F)n5)C4)cc3C2=O)C(=O)N1 (stereo partly drawn) [GS-210, 2-(2,6-Dioxopiperidin-3-yl)-5-((3-(cis-3-(4-(7-(tetrahydro-2H-pyran-4-yl)quinoxalin-2-yl)-3-(trifluoromethyl)-1H-pyrazol-1-yl)cyclobutyl)propyl)amino)isoindoline-1,3-dione]
< 10 | – | < 10 | – | < 10 | < 10 | O=C1CCC(N2C(=O)c3ccc(NCCCCCCn4cc(-c5cnc6ccc(N7CCOCC7)cc6n5)c(C5CC5)n4)cc3C2=O)C(=O)N1 (stereo not drawn) [GS-569, 5-((6-(3-Cyclopropyl-4-(7-morpholinoquinoxalin-2-yl)-1H-pyrazol-1-yl)hexyl)amino)-2-(2,6-dioxopiperidin-3-yl)isoindoline-1,3-dione]
100 to 1000 | 10 to 100 | > 1000 | 10 to 100 | – | – | O=C1CCC(N2C(=O)c3ccc(NCCC[C@H]4C[C@@H](n5cc(-c6cnc7cc(N8CCOCC8)ccc7n6)cn5)C4)cc3C2=O)C(=O)N1 (stereo partly drawn) [GS-402, 2-(2,6-Dioxopiperidin-3-yl)-5-((3-(cis-3-(4-(6-morpholinoquinoxalin-2-yl)-1H-pyrazol-1-yl)cyclobutyl)propyl)amino)isoindoline-1,3-dione]
10 to 100 | – | 10 to 100 | – | < 10 | < 10 | Cn1ccc2c(-c3cn([C@H]4C[C@H](CNc5ccc6c(c5)C(=O)N(C5CCC(=O)NC5=O)C6=O)C4)nc3C3CC3)nccc21 (stereo partly drawn) [GS-615, 5-(((trans-3-(3-Cyclopropyl-4-(1-methyl-1H-pyrrolo[3,2-c]pyridin-4-yl)-1H-pyrazol-1-yl)cyclobutyl)methyl)amino)-2-(2,6-dioxopiperidin-3-yl)isoindoline-1,3-dione]
> 1000 | > 1000 | > 1000 | > 1000 | – | – | CN1CC(Nc2cccc(-c3cn([C@H]4C[C@H](CNc5ccc6c(c5)C(=O)N(C5CCC(=O)NC5=O)C6=O)C4)nc3C3CC3)n2)C1 (stereo partly drawn) [GS-292, 5-(((trans-3-(3-Cyclopropyl-4-(6-((1-methylazetidin-3-yl)amino)pyridin-2-yl)-1H-pyrazol-1-yl)cyclobutyl)methyl)amino)-2-(2,6-dioxopiperidin-3-yl)isoindoline-1,3-dione]
< 10 | < 10 | < 10 | < 10 | – | – | COc1cccnc1-c1cn([C@H]2C[C@H](CNc3ccc4c(c3)C(=O)N(C3CCC(=O)NC3=O)C4=O)C2)nc1C1CC1 (stereo partly drawn) [GS-262, 5-(((trans-3-(3-Cyclopropyl-4-(3-methoxypyridin-2-yl)-1H-pyrazol-1-yl)cyclobutyl)methyl)amino)-2-(2,6-dioxopiperidin-3-yl)isoindoline-1,3-dione]
< 10 | – | < 10 | – | < 10 | < 10 | CC(C)n1ncc2c(-c3cn([C@H]4C[C@H](CNc5ccc6c(c5)C(=O)N(C5CCC(=O)NC5=O)C6=O)C4)nc3C3CC3)nccc21 (stereo partly drawn) [GS-612, 5-(((trans-3-(3-Cyclopropyl-4-(1-isopropyl-1H-pyrazolo[4,3-c]pyridin-4-yl)-1H-pyrazol-1-yl)cyclobutyl)methyl)amino)-2-(2,6-dioxopiperidin-3-yl)isoindoline-1,3-dione]

The next lines start with the compound.

SMILES | IC50 (MV4;11 cells; [1]) [nM] | IC50 (MV4;11 cells; [2]) [nM] | IC50 (MOLM-13 cells; [3]) [nM] | IC50 (MOLM-13 cells; [4]) [nM] | IC50 (MV4;11 cells; [5]) [nM] | IC50 (MOLM-13 cells; [6]) [nM]
O=C1CCC(N2C(=O)c3ccc(NC[C@H]4C[C@H](n5nc(C6CC6)c6cnccc65)C4)cc3C2=O)C(=O)N1 (stereo partly drawn) [GS-474, 5-(((trans-3-(3-cyclopropyl-1H-pyrazolo[4,3-c]pyridin-1-yl)cyclobutyl)methyl)amino)-2-(2,6-dioxopiperidin-3-yl)isoindoline-1,3-dione] | > 1000 | – | > 1000 | – | > 1000 | > 1000
C[C@@H]1CC(n2cc(-c3cnc4ccccc4n3)cn2)C[C@H](C)N1C(=O)CCCCNc1ccc2c(c1)C(=O)N(C1CCC(=O)NC1=O)C2=O (stereo partly drawn) [GS-143, 5-((5-((2R,6S)-2,6-dimethyl-4-(4-(quinoxalin-2-yl)-1H-pyrazol-1-yl)piperidin-1-yl)-5-oxopentyl)amino)-2-(2,6-dioxopiperidin-3-yl)isoindoline-1,3-dione] | > 1000 | > 1000 | > 1000 | > 1000 | – | –
O=C1CCC(N2Cc3cc(CNC(=O)c4cccc(N5CCC(n6cc(-c7cnc8ccccc8n7)cn6)CC5)c4)ccc3C2=O)C(=O)N1 (stereo not drawn) [GS-476, N-((2-(2,6-dioxopiperidin-3-yl)-1-oxoisoindolin-5-yl)methyl)-3-(4-(4-(quinoxalin-2-yl)-1H-pyrazol-1-yl)piperidin-1-yl)benzamide] | < 10 | – | < 10 | – | < 10 | < 10
O=C1CCC(N2C(=O)c3ccc(NCCCCCCn4ccc(-c5cnc6ccccc6n5)n4)cc3C2=O)C(=O)N1 (stereo not drawn) [GS-536, 2-(2,6-Dioxopiperidin-3-yl)-5-((6-(3-(quinoxalin-2-yl)-1H-pyrazol-1-yl)hexyl)amino)isoindoline-1,3-dione] | > 1000 | – | > 1000 | – | 100 to 1000 | 10 to 100
O=C1CCC(N2C(=O)c3ccc(NC[C@H]4C[C@H](n5cc(C6CCCCC6)c(C6CC6)n5)C4)cc3C2=O)C(=O)N1 (stereo partly drawn) [GS-468, 5-(((trans-3-(4-cyclohexyl-3-cyclopropyl-1H-pyrazol-1-yl)cyclobutyl)methyl)amino)-2-(2,6-dioxopiperidin-3-yl)isoindoline-1,3-dione] | 10 to 100 | – | 100 to 1000 | – | 10 to 100 | 10 to 100
O=C1CCC(N2Cc3ccc(CCCCCCn4cc(-c5cnc6ccccc6n5)cn4)cc3C2=O)C(=O)N1 (stereo not drawn) [GS-106, 3-(1-Oxo-6-(6-(4-(quinoxalin-2-yl)-1H-pyrazol-1-yl)hexyl)isoindolin-2-yl)piperidine-2,6-dione] | 100 to 1000 | 10 to 100 | > 1000 | 10 to 100 | – | –
O=C1CCC(N2C(=O)c3ccc(NCCCCCCn4nccc4-c4cnc5ccccc5n4)cc3C2=O)C(=O)N1 (stereo not drawn) [GS-537, 2-(2,6-dioxopiperidin-3-yl)-5-((6-(5-(quinoxalin-2-yl)-1H-pyrazol-1-yl)hexyl)amino)isoindoline-1,3-dione] | 100 to 1000 | – | > 1000 | – | 100 to 1000 | 10 to 100
O=C1CCC(N2C(=O)c3ccc(NC4CCC(CCn5cc(-c6cnc7ccccc7n6)cn5)CC4)cc3C2=O)C(=O)N1 (stereo not drawn) [GS-183, 2-(2,6-Dioxopiperidin-3-yl)-5-((4-(2-(4-(quinoxalin-2-yl)-1H-pyrazol-1-yl)ethyl)cyclohexyl)amino)isoindoline-1,3-dione] | 100 to 1000 | 100 to 1000 | > 1000 | 100 to 1000 | – | –
O=C1CCC(N2Cc3ccc(CCCC(=O)N4CCC(n5cc(-c6ccc7ccccc7n6)cn5)CC4)cc3C2=O)C(=O)N1 (stereo not drawn) [GS-159, 3-(1-Oxo-6-(4-oxo-4-(4-(4-(quinolin-2-yl)-1H-pyrazol-1-yl)piperidin-1-yl)butyl)isoindolin-2-yl)piperidine-2,6-dione] | > 1000 | > 1000 | > 1000 | > 1000 | – | –
O=C1CCC(N2Cc3c(NC4CCCC(Nc5cccc(N6CCC(c7cccc(Cl)c7)CC6)c5)C4)cccc3C2=O)C(=O)N1 (stereo not drawn) [GS-135, 3-(4-((3-((3-(4-(3-Chlorophenyl)piperidin-1-yl)phenyl)amino)cyclohexyl)amino)-1-oxoisoindolin-2-yl)piperidine-2,6-dione] | > 1000 | 100 to 1000 | > 1000 | > 1000 | – | –

Source: patent US20240050428A1 (Cullgen (Shanghai), Inc., priority 2020, published 2024)
